Measurements from ChEMBL document CHEMBL5236646, “Design, synthesis, and biological evaluation of BRD4 degraders” (Bioorg Med Chem, 2023).
Active and inactive are the calls of the source. The calls are words filed in the database; no cut-off is given here.

How the values were obtained:
MM1.S = assay: Antiproliferative activity against human MM1.S cells assessed as inhibition of cell growth incubated for 72 hrs MTS assay; type: functional, cell-based
MV4-11 = assay: Antiproliferative activity against human […] cells assessed as inhibition of cell growth incubated for 72 hrs MTS assay; type: functional, cell-based; conditions: MV4-11, 72 h
[1] = target: T1, Protein cereblon/Bromodomain-containing protein 4 (Homo sapiens) (UniProt O60885+Q96SW2); assay: Protac activity at CRBN/BRD4 in human MM1.S cells assessed as induction of BRD4 protein degradation by measuring residual activity at 0.04 uM incubated for 3 hrs by Western blot analysis relative to control; type: cell-based
[2] = target: T1, Protein cereblon/Bromodomain-containing protein 4 (Homo sapiens); assay: Protac activity at CRBN/BRD4 in human MM1.S cells assessed as induction of BRD4 protein degradation by measuring residual activity at 0.12 uM incubated for 3 hrs by Western blot analysis relative to control; type: cell-based
[3] = target: T1, Protein cereblon/Bromodomain-containing protein 4 (Homo sapiens); assay: Protac activity at CRBN/BRD4 in human MM1.S cells assessed as induction of BRD4 protein degradation by measuring residual activity at 0.36 uM incubated for 3 hrs by Western blot analysis relative to control; type: cell-based
[4] = target: T1, Protein cereblon/Bromodomain-containing protein 4 (Homo sapiens); assay: Protac activity at CRBN/BRD4 in human MV4-11 cells assessed as induction of BRD4 protein degradation by measuring residual activity at 0.01 uM incubated for 3 hrs by Western blot analysis relative to control; type: cell-based
[5] = target: T1, Protein cereblon/Bromodomain-containing protein 4 (Homo sapiens); assay: Protac activity at CRBN/BRD4 in human MV4-11 cells assessed as induction of BRD4 protein degradation by measuring residual activity at 0.03 uM incubated for 3 hrs by Western blot analysis relative to control; type: cell-based
[6] = target: T1, Protein cereblon/Bromodomain-containing protein 4 (Homo sapiens); assay: Protac activity at CRBN/BRD4 in human MV4-11 cells assessed as induction of BRD4 protein degradation by measuring residual activity at 0.09 uM incubated for 3 hrs by Western blot analysis relative to control; type: cell-based
[7] = target: T1, Protein cereblon/Bromodomain-containing protein 4 (Homo sapiens); assay: Protac activity at CRBN/BRD4 in human MM1.S cells assessed as downregulation of MYC protein expression at […] incubated for 3 hrs by Western blot analysis; type: cell-based
[8] = target: T1, Protein cereblon/Bromodomain-containing protein 4 (Homo sapiens); assay: Protac activity at CRBN/BRD4 in human MM1.S cells assessed as induction of BRD4 protein degradation by measuring residual activity at 0.03 uM incubated for 3 hrs by Western blot analysis relative to control; type: cell-based
[9] = target: T1, Protein cereblon/Bromodomain-containing protein 4 (Homo sapiens); assay: Protac activity at CRBN/BRD4 in human MM1.S cells assessed as induction of BRD4 protein degradation by measuring residual activity at 0.1 uM incubated for 3 hrs by Western blot analysis relative to control; type: cell-based
[10] = target: T1, Protein cereblon/Bromodomain-containing protein 4 (Homo sapiens); assay: Protac activity at CRBN/BRD4 in human MM1.S cells assessed as induction of BRD4 protein degradation by measuring residual activity at 0.3 uM incubated for 3 hrs by Western blot analysis relative to control; type: cell-based
[11] = target: T1, Protein cereblon/Bromodomain-containing protein 4 (Homo sapiens); assay: Protac activity at CRBN/BRD4 in human MV4-11 cells assessed as induction of BRD4 protein degradation by measuring residual activity at 30 nM measured after 6 hrs by Western blot analysis (reference value: 100%); type: cell-based
[12] = target: T1, Protein cereblon/Bromodomain-containing protein 4 (Homo sapiens); assay: Protac activity at CRBN/BRD4 in human MM1.S cells assessed as induction of BRD4 protein degradation by measuring residual activity at 100 nM measured after 6 hrs by Western blot analysis (reference value: 100%); type: cell-based
[13] = target: T1, Protein cereblon/Bromodomain-containing protein 4 (Homo sapiens); assay: Protac activity at CRBN/BRD4 in human MM1.S cells assessed as induction of BRD4 protein degradation by measuring residual activity at 300 nM measured after 6 hrs by Western blot analysis (reference value: 100%); type: cell-based
[14] = target: T1, Protein cereblon/Bromodomain-containing protein 4 (Homo sapiens); assay: Protac activity at CRBN/BRD4 in human MM1.S cells assessed as induction of BRD4 protein degradation by measuring residual activity at 1000 nM measured after 6 hrs by Western blot analysis (reference value: 100%); type: cell-based
[15] = target: T1, Protein cereblon/Bromodomain-containing protein 4 (Homo sapiens); assay: Protac activity at CRBN/BRD4 in human MV4-11 cells assessed as induction of BRD4 protein degradation by measuring residual activity at 10 nM measured after 6 hrs by Western blot analysis (reference value: 100%); type: cell-based
[16] = target: T1, Protein cereblon/Bromodomain-containing protein 4 (Homo sapiens); assay: Protac activity at CRBN/BRD4 in human MV4-11 cells assessed as induction of BRD4 protein degradation by measuring residual activity at 100 nM measured after 6 hrs by Western blot analysis (reference value: 100%); type: cell-based
[17] = target: T1, Protein cereblon/Bromodomain-containing protein 4 (Homo sapiens); assay: Protac activity at CRBN/BRD4 in human MM1.S cells assessed as induction of BRD4 protein degradation by measuring residual activity at 0.07 uM incubated for 3 hrs by Western blot analysis relative to control; type: cell-based
[18] = target: T1, Protein cereblon/Bromodomain-containing protein 4 (Homo sapiens); assay: Protac activity at CRBN/BRD4 in human MM1.S cells assessed as induction of BRD4 protein degradation by measuring residual activity at 0.2 uM incubated for 3 hrs by Western blot analysis relative to control; type: cell-based
[19] = target: T1, Protein cereblon/Bromodomain-containing protein 4 (Homo sapiens); assay: Protac activity at CRBN/BRD4 in human MM1.S cells assessed as induction of BRD4 protein degradation by measuring residual activity at 0.6 uM incubated for 3 hrs by Western blot analysis relative to control; type: cell-based
[20] = target: T1, Protein cereblon/Bromodomain-containing protein 4 (Homo sapiens); assay: Protac activity at CRBN/BRD4 in human MV4-11 cells assessed as induction of BRD4 protein degradation by measuring residual activity at 0.003 uM incubated for 3 hrs by Western blot analysis relative to control; type: cell-based
[21] = target: T1, Protein cereblon/Bromodomain-containing protein 4 (Homo sapiens); assay: Protac activity at CRBN/BRD4 in human MV4-11 cells assessed as induction of BRD4 protein degradation by measuring residual activity at 0.009 uM incubated for 3 hrs by Western blot analysis relative to control; type: cell-based
[22] = target: T1, Protein cereblon/Bromodomain-containing protein 4 (Homo sapiens); assay: Protac activity at CRBN/BRD4 in human MV4-11 cells assessed as induction of BRD4 protein degradation by measuring residual activity at 0.027 uM incubated for 3 hrs by Western blot analysis relative to control; type: cell-based
[23] = target: T1, Protein cereblon/Bromodomain-containing protein 4 (Homo sapiens); assay: Protac activity at CRBN/BRD4 in human MM1.S cells assessed as induction of BRD4 protein degradation by measuring residual activity at 0.06 uM incubated for 3 hrs by Western blot analysis relative to control; type: cell-based
[24] = target: T1, Protein cereblon/Bromodomain-containing protein 4 (Homo sapiens); assay: Protac activity at CRBN/BRD4 in human MM1.S cells assessed as induction of BRD4 protein degradation by measuring residual activity at 0.18 uM incubated for 3 hrs by Western blot analysis relative to control; type: cell-based
[25] = target: T1, Protein cereblon/Bromodomain-containing protein 4 (Homo sapiens); assay: Protac activity at CRBN/BRD4 in human MM1.S cells assessed as induction of BRD4 protein degradation by measuring residual activity at 0.54 uM incubated for 3 hrs by Western blot analysis relative to control; type: cell-based
[26] = target: T1, Protein cereblon/Bromodomain-containing protein 4 (Homo sapiens); assay: Protac activity at CRBN/BRD4 in human MV4-11 cells assessed as induction of BRD4 protein degradation by measuring residual activity at 0.006 uM incubated for 3 hrs by Western blot analysis relative to control; type: cell-based
[27] = target: T1, Protein cereblon/Bromodomain-containing protein 4 (Homo sapiens); assay: Protac activity at CRBN/BRD4 in human MV4-11 cells assessed as induction of BRD4 protein degradation by measuring residual activity at 0.018 uM incubated for 3 hrs by Western blot analysis relative to control; type: cell-based
[28] = target: T1, Protein cereblon/Bromodomain-containing protein 4 (Homo sapiens); assay: Protac activity at CRBN/BRD4 in human MV4-11 cells assessed as induction of BRD4 protein degradation by measuring residual activity at 0.054 uM incubated for 3 hrs by Western blot analysis relative to control; type: cell-based

T1 sequence (Q96SW2 whole entry, looked up, other chains not shown): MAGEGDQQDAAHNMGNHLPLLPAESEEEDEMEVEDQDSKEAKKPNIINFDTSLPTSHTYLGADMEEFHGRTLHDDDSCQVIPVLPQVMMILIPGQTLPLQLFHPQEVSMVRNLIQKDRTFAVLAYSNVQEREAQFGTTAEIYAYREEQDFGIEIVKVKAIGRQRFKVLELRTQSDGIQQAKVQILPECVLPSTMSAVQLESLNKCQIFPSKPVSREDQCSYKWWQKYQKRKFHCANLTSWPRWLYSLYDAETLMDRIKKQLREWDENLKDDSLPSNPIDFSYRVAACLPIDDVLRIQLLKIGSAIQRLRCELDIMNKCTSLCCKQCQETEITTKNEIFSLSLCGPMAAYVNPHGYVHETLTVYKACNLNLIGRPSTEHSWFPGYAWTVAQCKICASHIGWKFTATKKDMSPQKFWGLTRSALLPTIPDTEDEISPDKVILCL

SMILES | IC50 (MM1.S) | IC50 (MV4-11) | Activity [4] | Activity [5] | Activity [6] | Activity [7] | Activity [8] | Activity [9] | Activity [10] | further results
Cc1sc2c(c1C)C(c1ccc(Cl)cc1)=N[C@@H](CC(=O)OC(C)(C)C)c1nnc(C)n1-2 | 62 nM | 42 nM |  |  |  |  |  |  |  | 
Cc1sc2c(c1C)C(c1ccc(Cl)cc1)=N[C@@H](CC(=O)NCCCCC(=O)NCc1ccc(CNc3cccc4c3C(=O)N(C3CCC(=O)NC3=O)C4=O)cc1)c1nnc(C)n1-2 (stereo not given in full) | 131 nM | 26 nM | 103% | 104% | 112% |  |  |  |  | Activity [1]: 121%; Activity [2]: 125%; Activity [3]: 116%
Cc1sc2c(c1C)C(c1ccc(Cl)cc1)=N[C@@H](CC(=O)NCCCCNC(=O)COc1cccc3c1C(=O)N(C1CCC(=O)NC1=O)C3=O)c1nnc(C)n1-2 (stereo not given in full) | 141 nM | 13 nM | 137% | 132% | 48% | Active | 109% | 87% | 54% | Activity [11]: 14%; Activity [12]: 26%; Activity [13]: 43%; Activity [14]: 40%; Activity [15]: 21%; Activity [16]: 0%
Cc1sc2c(c1C)C(c1ccc(Cl)cc1)=N[C@@H](CC(=O)NCCCCNC(=O)c1ccc(COc3cccc4c3C(=O)N(C3CCC(=O)NC3=O)C4=O)cc1)c1nnc(C)n1-2 (stereo not given in full) | 297 nM | 25 nM | 126% | 108% | 91% |  |  |  |  | Activity [17]: 117%; Activity [18]: 97%; Activity [19]: 87%
Cc1sc2c(c1C)C(c1ccc(Cl)cc1)=N[C@@H](CC(=O)NCCCCCNC(=O)c1ccc(COc3cccc4c3C(=O)N(C3CCC(=O)NC3=O)C4=O)cc1)c1nnc(C)n1-2 (stereo not given in full) | 110 nM | 8 nM |  |  |  | inactive | 87% | 86% | 75% | Activity [20]: 95%; Activity [21]: 96%; Activity [22]: 56%
Cc1sc2c(c1C)C(c1ccc(Cl)cc1)=N[C@@H](CC(=O)NCCCCC(=O)NCCOc1cccc3c1C(=O)N(C1CCC(=O)NC1=O)C3=O)c1nnc(C)n1-2 (stereo not given in full) | 163 nM | 18 nM |  |  |  |  |  |  |  | Activity [23]: 90%; Activity [24]: 111%; Activity [25]: 111%; Activity [26]: 105%; Activity [27]: 105%; Activity [28]: 117%
